The viability is a per cent measure of how many cells are alive, often set against a control.

The values below come from patent US12630547B2, “RAS protein degraders, pharmaceutical compositions thereof, and their therapeutic applications” (BioTheryX, Inc., priority 2019, dated 2026).

Common to all, as to type: cell-based
Experiment [1] relates to H358 cells. The experiment in a line: Cell viability assay (CELLTITER-GLO), H358 cells. The conditions noted are these: Table 4; 3 days. An outline of the steps: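 Luminescent ATP read-out (CellTiter-Glo) after 3-day incubation at 37 °C of H358 cells plated at 4,000/well in RPMI 1640 with 10% FBS. Values are either IC50 bins (A ≤1 μM through D >10 μM) or % of DMSO viability at 10 μM or 1 μM, bins A <10% through D ≥50%.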
(In general: Cellular ATP, detected with luciferase, serves as a proxy for viable cell number.)

The test system of experiment [2] is MOLM-13 cells. Nature of the experiment: Cell viability assay (CELLTITER-GLO), MOLM-13 cells. Particulars: Homo sapiens, MOLM-13, 72 h; Table 2; compound at 10 μM, 3 days; read-out: Effect on MOLM-13 cell viability (% DMSO). An outline of the steps: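 Viability, as % of DMSO control, was read by CellTiter-Glo luminescence after a 3-day compound exposure (single dose of 10 μM or 1 μM) at 37 °C. Cells plated at 4,000/well in RPMI 1640 with 10% FBS. Results reported as categories A <10%, B 10–<25%, C 25–<50%, D ≥50%.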

For experiment [3], the system named is H23 cells. The experiment in a line: Cell viability assay (CELLTITER-GLO), H23 cells. Particulars: Table 4; 3 days. An outline of the steps: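 Luminescent CellTiter-Glo readout after 3-day compound treatment (37° C, 5% CO2) of H23 cells plated at 4,000 cells/well in RPMI 1640 plus 10% FBS, DMSO as control. IC50 values given as categorical ranges.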

SMILES strings stand for the structures.

Consider `C=CC(=O)N1CCN(c2nc(=O)n(-c3ccccc3C(C)C)c3nc(-c4c(F)cccc4OCCCCCCCN4CCC(c5cc(F)cc6c5CN(C5CCC(=O)NC5=O)C6=O)CC4)c(F)cc23)[C@@H](C)C1` (stereo partly drawn) [Compound 72, 3-(4-(1-(7-(2-(4-((S)-4-Acryloyl-2-methylpiperazin-1-yl)-6-fluoro-1-(2-isopropylphenyl)-2-oxo-1,2-dihydropyrido[2,3-d]pyrimidin-7-yl)-3-fluorophenoxy)heptyl)piperidin-4-yl)-6-fluoro-1-oxoisoindolin-2-yl)piperidine-2,6-dione], for which the “Inhibition of H358 cells, IC50 (class)” value in experiment [1] is given as “A′”. Also, the viability at 10 µM in experiment [2] is under 10%. Also, in experiment [3], the “Inhibition of H23 cells, IC50 (class)” value is “B′”.

Turning to `CCC(=O)N1CCN(c2nc(=O)n(-c3ccccc3C(C)C)c3nc(-c4c(F)cccc4OCCCCCCCN4CCC(c5cc(F)cc6c5CN(C5CCC(=O)NC5=O)C6=O)CC4)c(F)cc23)[C@@H](C)C1` (stereo partly drawn) [Compound 73, 3-(6-Fluoro-4-(1-(7-(3-fluoro-2-(6-fluoro-1-(2-isopropylphenyl)-4-((S)-2-methyl-4-propionylpiperazin-1-yl)-2-oxo-1,2-dihydropyrido[2,3-d]pyrimidin-7-yl)phenoxy)heptyl)piperidin-4-yl)-1-oxoisoindolin-2-yl)piperidine-2,6-dione], in experiment [1], the “Inhibition of H358 cells, IC50 (class)” value is given as “B′”. Besides, the viability at 10 µM in experiment [2] fell in the range of 10 to 25%. Besides, in experiment [3], the “Inhibition of H23 cells, IC50 (class)” value is given as “B′”.

For the compound `C=CC(=O)N1CCN(c2nc(OCCCCCCCN3CCC(c4cc(F)cc5c4CN(C4CCC(=O)NC4=O)C5=O)CC3)nc3c2CCN(c2cc(O)cc4ccccc24)C3)CC1` (stereo not drawn) [Compound 75, 3-(4-(1-(7-((4-(4-Acryloylpiperazin-1-yl)-7-(3-hydroxynaphthalen-1-yl)-5,6,7,8-tetrahydropyrido[3,4-d]pyrimidin-2-yl)oxy)heptyl)piperidin-4-yl)-6-fluoro-1-oxoisoindolin-2-yl)piperidine-2,6-dione], in experiment [1], the “Inhibition of H358 cells, IC50 (class)” value is on record as “C′”. Also, the viability at 10 µM in experiment [2] lay in the range of 25 to 50%. Besides, in experiment [3], the “Inhibition of H23 cells, IC50 (class)” value is given as “B′”.

In the case of `C=CC(=O)N1CCN(c2ncnc3c(F)c(-c4c(F)cccc4OCCCCCCCCCCC(=O)N[C@H](C(=O)N4C[C@H](O)C[C@H]4C(=O)NCc4ccc(-c5scnc5C)cc4)C(C)(C)C)c(Cl)cc23)CC1` [Compound 76, (2S,4R)-1-((2S)-2-(11-(2-(4-(4-Acryloylpiperazin-1-yl)-6-chloro-8-fluoroquinazolin-7-yl)-3-fluorophenoxy)undecanamido)-3,3-dimethylbutanoyl)-4-hydroxy-N-(4-(4-methylthiazol-5-yl)benzyl)pyrrolidine-2-carboxamide], the “Inhibition of H358 cells, IC50 (class)” value in experiment [1] is listed as “B′”. Moreover, the viability at 10 µM in experiment [2] is under 10%. Besides, the “Inhibition of H23 cells, IC50 (class)” value in experiment [3] is recorded as “B′”.

Take `CCC(=O)N1CCN(c2ncnc3c(F)c(-c4c(F)cccc4OCCCCCCCCCCC(=O)N[C@H](C(=O)N4C[C@H](O)C[C@H]4C(=O)NCc4ccc(-c5scnc5C)cc4)C(C)(C)C)c(Cl)cc23)CC1` [Compound 77, (2S,4R)-1-((2S)-2-(11-(2-(6-Chloro-8-fluoro-4-(4-propionylpiperazin-1-yl)quinazolin-7-yl)-3-fluorophenoxy)undecanamido)-3,3-dimethylbutanoyl)-4-hydroxy-N-(4-(4-methylthiazol-5-yl)benzyl)pyrrolidine-2-carboxamide]: the “Inhibition of H358 cells, IC50 (class)” value in experiment [1] was “C′”. Also, the viability at 10 µM in experiment [2] was at least 50%. Further, the “Inhibition of H23 cells, IC50 (class)” value in experiment [3] was “D′”.

With `CCC(=O)N1CCN(c2ncnc3c(F)c(-c4c(F)cccc4OCCCCCCC(=O)N[C@H](C(=O)N4C[C@H](O)C[C@H]4C(=O)NCc4ccc(-c5scnc5C)cc4)C(C)(C)C)c(Cl)cc23)CC1` [Compound 78, (2S,4R)-1-((2S)-2-(7-(2-(6-Chloro-8-fluoro-4-(4-propionylpiperazin-1-yl)quinazolin-7-yl)-3-fluorophenoxy)heptanamido)-3,3-dimethylbutanoyl)-4-hydroxy-N-(4-(4-methylthiazol-5-yl)benzyl)pyrrolidine-2-carboxamide], the “Inhibition of H358 cells, IC50 (class)” value in experiment [1] is on record as “B′”. For the same compound, the viability at 10 µM in experiment [2] was under 10%. Besides, the “Inhibition of H23 cells, IC50 (class)” value in experiment [3] is reported as “C′”.

As to `O=C1CCC(N2Cc3c(cc(F)cc3C3CCN(CCCCCCCOc4cccc(F)c4-c4c(Cl)cc5c(N6CCN(C(=O)C7CCNC7)CC6)ncnc5c4F)CC3)C2=O)C(=O)N1` (stereo not drawn) [Compound 79, 3-(4-(1-(7-(2-(6-Chloro-8-fluoro-4-(4-(pyrrolidine-3-carbonyl)piperazin-1-yl)quinazolin-7-yl)-3-fluorophenoxy)heptyl)piperidin-4-yl)-6-fluoro-1-oxoisoindolin-2-yl)piperidine-2,6-dione], the “Inhibition of H358 cells, IC50 (class)” value in experiment [1] is “B′”. The viability at 10 µM in experiment [2] is under 10%. Also, in experiment [3], the “Inhibition of H23 cells, IC50 (class)” value is on record as “B′”.

Consider `CC(C)/C=C(\C#N)C(=O)N1CCN(c2ncnc3c(F)c(-c4c(F)cccc4OCCCCCCCN4CCC(c5cc(F)cc6c5CN(C5CCC(=O)NC5=O)C6=O)CC4)c(Cl)cc23)CC1` (stereo not drawn) [Compound 80, (E)-2-(4-(6-Chloro-7-(2-((7-(4-(2-(2,6-dioxopiperidin-3-yl)-6-fluoro-1-oxoisoindolin-4-yl)piperidin-1-yl)heptyl)oxy)-6-fluorophenyl)-8-fluoroquinazolin-4-yl)piperazine-1-carbonyl)-4-methylpent-2-enenitrile], for which the “Inhibition of H358 cells, IC50 (class)” value in experiment [1] is given as “B′”. Also, the viability at 10 µM in experiment [2] was under 10%. In addition, in experiment [3], the “Inhibition of H23 cells, IC50 (class)” value is on record as “B′”.

Consider `O=C1CCC(N2Cc3c(cc(F)cc3C3CCN(CCCCCCCOc4cccc(F)c4-c4c(Cl)cc5c(N6CCN(C(=O)C7COC7)CC6)ncnc5c4F)CC3)C2=O)C(=O)N1` (stereo not drawn) [Compound 81, 3-(4-(1-(7-(2-(6-Chloro-8-fluoro-4-(4-(oxetane-3-carbonyl)piperazin-1-yl)quinazolin-7-yl)-3-fluorophenoxy)heptyl)piperidin-4-yl)-6-fluoro-1-oxoisoindolin-2-yl)piperidine-2,6-dione], for which, in experiment [1], the “Inhibition of H358 cells, IC50 (class)” value is “C′”. In addition, the viability at 10 µM in experiment [2] was at least 50%. Also, the “Inhibition of H23 cells, IC50 (class)” value in experiment [3] is recorded as “C′”.

As for `C=C(F)C(=O)N1CCN(c2ncnc3c(F)c(-c4c(F)cccc4OCCCCCCCN4CCC(c5cc(F)cc6c5CN(C5CCC(=O)NC5=O)C6=O)CC4)c(Cl)cc23)CC1` (stereo not drawn) [Compound 82, 3-(4-(1-(7-(2-(6-Chloro-8-fluoro-4-(4-(2-fluoroacryloyl)piperazin-1-yl)quinazolin-7-yl)-3-fluorophenoxy)heptyl)piperidin-4-yl)-6-fluoro-1-oxoisoindolin-2-yl)piperidine-2,6-dione], in experiment [1], the “Inhibition of H358 cells, IC50 (class)” value was “B′”. Besides, the viability at 10 µM in experiment [2] is under 10%. Further, in experiment [3], the “Inhibition of H23 cells, IC50 (class)” value is recorded as “B′”.

Turning to `NC(=O)N1CCN(c2ncnc3c(F)c(-c4c(F)cccc4OCCCCCCCN4CCC(c5cc(F)cc6c5CN(C5CCC(=O)NC5=O)C6=O)CC4)c(Cl)cc23)CC1` (stereo not drawn) [Compound 83, 4-(6-Chloro-7-(2-((7-(4-(2-(2,6-dioxopiperidin-3-yl)-6-fluoro-1-oxoisoindolin-4-yl)piperidin-1-yl)heptyl)oxy)-6-fluorophenyl)-8-fluoroquinazolin-4-yl)piperazine-1-carboxamide], the “Inhibition of H358 cells, IC50 (class)” value in experiment [1] is listed as “B′”. Besides, the viability at 10 µM in experiment [2] was under 10%. For the same compound, the “Inhibition of H23 cells, IC50 (class)” value in experiment [3] is recorded as “B′”.

Turning to `CCC(=O)N1CCN(c2ncnc3c(F)c(-c4c(F)cccc4OCCC4CCC(CCN5CCC(c6cc(F)cc7c6CN(C6CCC(=O)NC6=O)C7=O)CC5)CC4)c(Cl)cc23)CC1` (stereo not drawn) [Compound 84, 3-(4-(1-(2-(4-(2-(2-(6-Chloro-8-fluoro-4-(4-propionylpiperazin-1-yl)quinazolin-7-yl)-3-fluorophenoxy)ethyl)cyclohexyl)ethyl)piperidin-4-yl)-6-fluoro-1-oxoisoindolin-2-yl)piperidine-2,6-dione], the “Inhibition of H358 cells, IC50 (class)” value in experiment [1] is “B′”. In addition, the viability at 10 µM in experiment [2] is under 10%. Further, the “Inhibition of H23 cells, IC50 (class)” value in experiment [3] was “B′”.

Regarding `CCC(=O)N1CCN(c2ncnc3c(F)c(-c4c(F)cccc4OCCCCCCCN4CCC(c5cc(F)cc6c5CN(C5CCC(=O)NC5=O)C6=O)CC4)c(Cl)cc23)[C@@H](C)C1` (stereo partly drawn) [Compound 85, 3-(4-(1-(7-(2-(6-Chloro-8-fluoro-4-((S)-2-methyl-4-propionylpiperazin-1-yl)quinazolin-7-yl)-3-fluorophenoxy)heptyl)piperidin-4-yl)-6-fluoro-1-oxoisoindolin-2-yl)piperidine-2,6-dione], in experiment [1], the “Inhibition of H358 cells, IC50 (class)” value is recorded as “B′”. In addition, the viability at 10 µM in experiment [2] was under 10%. The “Inhibition of H23 cells, IC50 (class)” value in experiment [3] is listed as “B′”.

Regarding `CCC(=O)N1CCN(c2ncnc3c(F)c(-c4c(F)cccc4OCCCCCCCN4CCCC(c5cc(F)cc6c5CN(C5CCC(=O)NC5=O)C6=O)C4)c(Cl)cc23)CC1` (stereo not drawn) [Compound 87, 3-(4-(1-(7-(2-(6-Chloro-8-fluoro-4-(4-propionylpiperazin-1-yl)quinazolin-7-yl)-3-fluorophenoxy)heptyl)piperidin-3-yl)-6-fluoro-1-oxoisoindolin-2-yl)piperidine-2,6-dione], the “Inhibition of H358 cells, IC50 (class)” value in experiment [1] is recorded as “B′”. In addition, the viability at 10 µM in experiment [2] is under 10%. Besides, the “Inhibition of H23 cells, IC50 (class)” value in experiment [3] is listed as “B′”.
